Reference: patent US20250034139A1, “AMINE COMPOUNDS HAVING ANTI-INFLAMMATORY, ANTIFUNGAL, ANTIPARASITIC, AND ANTICANCER ACTIVITY” (PHARMA CINQ, LLC, priority 2013, published 2025)
In brackets after ≈: the same amount, converted by molar mass.

Columns and labels:
THP-1 cells = experiment: Example D: LPS-triggered THP-1 cell death assay, acute/5-hour and chronic/48-hour; type: cell-based, Human; settings: for Viable cell percent change, Chronic/48-hour, Mean: 10 ng/ml LPS, 0.1 μM test compound; for activity relative to AC in the LPS-triggered THP-1 cell death assay, in words: 0.1 μM, 5-hour and 48-hour time points
Description: Compounds of the invention were tested at 0.1 μM versus AC in the LPS-triggered THP-1 cell death assay. Both acute/5-hour and chronic/48-hour phases of cell death were assessed. Compounds were screened in batches with DMSO as the negative control and AC as the high activity control.

[1] = system: Cryptococcus neoformans (serotype D); experiment: Example K: Cryptococcus neoformans (serotype D) growth inhibition; type: cell-based; settings: Cryptococcus deneoformans, OD of 48 hour reading, 37° C., tested 4 to 60 μM, XLfit
Description: Cryptococcus neoformans (serotype D) were plated in 96 well plates with 144 μl/well of 8×10e5 CFU/ml in YM growth medium. Diluted compounds were then added to each well with concentration ranged from 4 to 60 μM as final concentration in duplicates. The plates were inoculated at 37° C. for total of 48 hours. Two readings of OD at 600 nm were measured after 30 and 48 hour treatments.
• 1. Pick a single colony of Cryptococcus from the YM agar plate using the inoculum loop and inoculate into a 125 ml flask containing 25 ml of YM growth medium. • 2. Incubate at 37° C. with shaking at 220 rpm for 24 hours with loosen lid to allow air in and facilitates growth. • 3. Examine an aliquot of the culture under a microscope for yeast cell morphology and lack of bacterial contamination. • 4. Dilute the overnight culture with YM medium at 1:100 dilution and count the number of cells as 1×10^6 cfu/ml. • 5. Make a final concentration of cells suspension at 8×10^5 cfu/ml in YM medium. • 6. Plate 144 μl/well of 8×10^5 cfu/ml cell suspension on 96-well plates. Part-II: Cryptococcus Growth Inhibition Testing with Compounds • 1. From 10 mM DMSO stock solutions, make serial dilutions of compounds to 0.1, 0.2, 0.3, 0.5, 1.0 and 1.5 mM solution. • 2. Add 6 ul each of diluted compound solutions per well in duplicates. The final concentrations were 0, 4, 8, 12, 20, 40 and 60 micromolar. • 3. Incubated all plates at 37° C. overnight (30 hours) with 150 rpm shaking. • 4. Read absorbance at OD600 for each plate. • 5. Leave plates in 37° C. incubator for another day and read absorbance at OD600 again at 48 hours to ensure the inhibitory effect of the compounds. • 6. Calculated the % inhibition and IC50 of each compound against untreated cells.

[2] = system: 4T1 murine breast cancer cells; experiment: Example S: in vitro anticancer screen, 4T1 cells, Wst1; type: cell-based, mouse; settings: Mus musculus, 4T1, 18 h, 18 hr, Wst1; for viability at 1 µM: read-out: 4T1 1 μM, percent of cancer cell survival relative to vehicle treated cells; for viability at 5 µM: read-out: 4T1 5 μM, percent of cancer cell survival relative to vehicle treated cells
Outline: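 Read-out is Wst1 absorbance (450 nm, reference 630 nm) after roughly 2 hr dye incubation, giving percent cell survival versus vehicle. Before that, compounds at 1 μM or 5 μM were applied for 18 hr to 4T1 cells plated at 1×10^4 per well.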

[3] = system: PC3 human prostate cancer cells; experiment: Example S: in vitro anticancer screen, PC-3 cells, Wst1; type: cell-based; settings: Homo sapiens, PC-3, approximately 20 hours, Wst1, read-out: PC-3, percent of cancer cell survival relative to vehicle treated cells
Outline: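 Values give percent survival relative to vehicle, read by Wst1 absorbance (450/630 nm) after 2 h dye incubation, in triplicate. Cells were seeded at 2×10^4/well and treated about 20 h with compound at 0.4, 0.5 or 2.5 μM, depending on compound.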

[4] = system: PC-3 prostate cancer cells; experiment: Example T: sensitisation of PC-3 cells to doxorubicin, oxaliplatin, paclitaxel or vincristine, Wst1; type: cell-based, human; settings: PC-3 cells, 72 hours; for viability at 0.4 µM / viability at 2.5 µM: Homo sapiens, Wst1, vehicle = 100, read-out: No Chemo: percent cell survival; for viability at 0.4 µM: compound 0.4 μM alone; for Doxorubicin 3.5 μM: percent cell survival / Oxaliplatin 100 μM: percent cell survival / Paclitaxel 50 μM: percent cell survival / Vincristine 100 nM: percent cell survival: chemotherapy agent alone normalized to 100%; for viability at 2.5 µM: compound 2.5 μM alone
[5] = system: Candida albicans strain 3153; experiment: Example H: Candida albicans growth inhibition (OD 600 nm); type: cell-based; settings: for MIC: Candida albicans, 3153, 24 hrs at 30° C., YPD, XLfit, read-out: MIC (uM) (99% of inhibition of fungal growth); for IC50: Candida albicans, 3153, read-out: IC50 (uM) (50% inhibition of fungal growth), 24 hrs at 30° C., YPD, XLfit
Description: A single colony of Candida Albicans was grown in 50 ml YPD broth overnight (19 hr). The cells were washed with PBS and 3.5×10^4 CFU/ml of C. Albicans (144 μl/well) in YPD medium were plated in 96 well plates. Test compounds were then added to each well with concentration ranged from 5 to 40 μM as final concentrations. The plates were incubated at 30° C. overnight (24 hrs) and OD at 600 nm was read at the end of incubation as an index of yeast cell density.
Part-I: Preparation of Candida albicans Cells • 1. One day prior to the inoculum preparation, pick a single colony of Candida albicans strain 3153 (lot #61794) from the Sabouraud Dextrose Agar plate using the inoculum loop and inoculate into a 250 mL flask containing 50 ml of YPD growth medium • 2. Incubate at 30° C. with shaking at 150 rpm for at least 18 hours with loosened lid to allow air in and facilitate growth. • 3. Examine an aliquot of the culture under a microscope for Candida cell morphology and lack of bacterial contamination; >95% of Candida cells should be blastoconidia. • 4. Transfer 25 ml the overnight culture into a 50-ml plastic disposable centrifuge tube, and centrifuge at 1000×g for 20 min. • 5. Discard the supernatant and wash the pellet with 4 ml of PBS at three times. Vortex and centrifuge, 1000×g for 10 min. • 6. After the third wash, dispense the pellet with 2 ml PBS and vortex. • 7. Make three 1:10 serial dilutions in sterile PBS (10^−1, 10^−2, 10^−3) from the 2 ml cell suspension using 15 ml culture tubes. The final volume in each tube is 5 ml. • 8. […] Make a 1:4 dilution in YPD medium from the 50-fold dilution of 10^−3 cell suspension for testing compounds. • The final C. albicans cell concentration for the test: 3.5×10^4 CFU/ml • 10. Plated 144 ul/well of the above dilution of cell on 96-well plates. Part-II: C. Albicans Growth Inhibition Testing with Compounds • 1. From 10 mM DMSO stock solutions, make serial dilutions of compounds to 0.13, 0.25, 0.40, 0.55, 0.75 and 1.0 mM solutions • 2. Add 6 ul each of diluted compound solutions per well in duplicates. The final concentrations were 0, 5, 10, 16, 22, 30 and 40 micromolar. • 3. Incubated all plates at 30 C for overnight (˜24 hours). • 4. Read absorbance at OD600 for each plate. • 5. Calculate the % inhibition of each compound against the DMSO treated cell.

[6] = compound 0.4 μM + doxorubicin 3.5 μM
[7] = compound 0.4 μM + oxaliplatin 100 μM
[8] = compound 0.4 μM + paclitaxel 50 μM
[9] = compound 0.4 μM + vincristine 100 nM
[10] = compound 2.5 μM + doxorubicin 3.5 μM
[11] = compound 2.5 μM + oxaliplatin 100 μM
[12] = compound 2.5 μM + paclitaxel 50 μM
[13] = compound 2.5 μM + vincristine 100 nM

SMILES	Viable cell percent change, Chronic/48-hour, Mean (THP-1 cells) [%]	activity relative to AC in the LPS-triggered THP-1 cell death assay, in words (THP-1 cells)	IC50 ([1]; read-out: IC50 (concentration for 50% of inhibition)) [µM]	MIC ([1]; read-out: MIC (concentration for maximum-99% of inhibition)) [µM]	viability at 1 µM [2] [%]	viability at 5 µM [2] [%]	viability at 0.4 µM [3] [%]	viability at 0.4 µM [4] [%]	Doxorubicin 3.5 μM: percent cell survival [4, 6] [%]	Oxaliplatin 100 μM: percent cell survival [4, 7] [%]	Paclitaxel 50 μM: percent cell survival [4, 8] [%]	Vincristine 100 nM: percent cell survival [4, 9] [%]	MIC [5] [µM]	IC50 [5] [µM]	viability at 2.5 µM [3] [%]	viability at 2.5 µM [4] [%]	Doxorubicin 3.5 μM: percent cell survival [4, 10] [%]	Oxaliplatin 100 μM: percent cell survival [4, 11] [%]	Paclitaxel 50 μM: percent cell survival [4, 12] [%]	Vincristine 100 nM: percent cell survival [4, 13] [%]
COc1ccc(OCCCCCCCCNc2ccnc3ccccc23)cc1 [AD, N-[8-(4-Methoxyphenoxy)octyl]quinolin-4-amine]	26.01	equivalent activity to AC at both the 5-hour and 48-hour time points	3.98	45.2 (≈ 17.1 µg/mL)	21.6	51.1	54.7	54.7	23.9	23.1	46.1	46.7								
CCOCCCOCCCCCCCCNc1ccnc2ccccc12 [AJ, N-[8-(3-Ethoxypropoxy)octyl]quinolin-4-amine]		equivalent activity to AC at both the 5-hour and 48-hour time points			22.4	21.1	18.5	18.5	33.1	22.5	20.8	20.1	113 (≈ 40.7 µg/mL)	43.2						
c1ccc(OCCCCCCNc2ccnc3ccccc23)cc1 [AR, N-(6-Phenoxyhexyl)quinolin-4-amine]	28.75	equivalent activity to AC at both the 5-hour and 48-hour time points			25.4	47	57	57	22.4	24.1	54.1	24.2	69.8 (≈ 22.4 µg/mL)	46.1						
CCCCCCOCCCOCCCCCNc1ccnc2ccccc12 [BB, N-{5-[3-(Hexyloxy)propoxy]pentyl}quinolin-4-amine]	0.65				59.6	41.1							99.7 (≈ 37.1 µg/mL)	50.9	16.3	16.3	20.4	24.7	25	17.2
CCCCCCOCCCCCOCCCNc1ccnc2ccccc12 [BC, N-{3-[5-(Hexyloxy)pentyloxy]propyl}quinolin-4-amine]	6.40				96.9	47.2							108 (≈ 40.1 µg/mL)	45.7	26	26	32.6	32.3	29.8	28.9
CCCOCCOCCCCCCCCNc1ccnc2ccccc12 [BD, N-[8-(2-Propoxyethoxy)octyl]quinolin-4-amine]		equivalent activity to AC at both the 5-hour and 48-hour time points			25.5	27.7	29.3	29.3	66.1	61.3	28.4	33.3	134 (≈ 48 µg/mL)	37.5						
COc1cccc(OCCCCCCCCNc2ccnc3ccccc23)c1 [BH, N-[8-(3-Methoxyphenoxy)octyl]quinolin-4-amine]	34.77	equivalent activity to AC at both the 5-hour and 48-hour time points			21	19.3	98.5	98.5	35.7	30.6	61	71.6	30.1 (≈ 11.4 µg/mL)	18.1						
